In ChEMBL document CHEMBL1201862, “PubChem BioAssay data set” (2004):
Activity calls are given as the source filed them.

Legend:
[1] = alpha-synuclein stem-loop luciferase translation blockers – H4 neuroglioma cells, luminescence, confirmation (AID 1988); assay type: functional, cell-based
INS1 = assay: INS-1E survival protection against cytokine death – cell-based, luminescence, retest, dose response (AID 449756); assay type: functional; details: Rattus norvegicus;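 note: cell death triggered by IL-1 beta plus TNF-alpha plus IFN-gamma mixture; protective hits raise ATP signal compared with cytokine alone wells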
[2] = luciferase reporter signal suppression in cells – H4 neuroglioma cells, luminescence, dose response (AID 1990); assay type: functional, cell-based
[3] = target: T1, Microphthalmia-associated transcription factor (Homo sapiens, UniProt O75030); assay: reducers of TRPM1 reporter luminescence, concentration series – cell-based, SK-MEL-5, cherry-picked, set 3, MITF inhibitor project, dose response (AID 493073); assay type: functional;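 note: SK-MEL-5 melanoma cells with luciferase driven by the MITF target TRPM1 promoter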
T1 sequence (O75030 whole entry): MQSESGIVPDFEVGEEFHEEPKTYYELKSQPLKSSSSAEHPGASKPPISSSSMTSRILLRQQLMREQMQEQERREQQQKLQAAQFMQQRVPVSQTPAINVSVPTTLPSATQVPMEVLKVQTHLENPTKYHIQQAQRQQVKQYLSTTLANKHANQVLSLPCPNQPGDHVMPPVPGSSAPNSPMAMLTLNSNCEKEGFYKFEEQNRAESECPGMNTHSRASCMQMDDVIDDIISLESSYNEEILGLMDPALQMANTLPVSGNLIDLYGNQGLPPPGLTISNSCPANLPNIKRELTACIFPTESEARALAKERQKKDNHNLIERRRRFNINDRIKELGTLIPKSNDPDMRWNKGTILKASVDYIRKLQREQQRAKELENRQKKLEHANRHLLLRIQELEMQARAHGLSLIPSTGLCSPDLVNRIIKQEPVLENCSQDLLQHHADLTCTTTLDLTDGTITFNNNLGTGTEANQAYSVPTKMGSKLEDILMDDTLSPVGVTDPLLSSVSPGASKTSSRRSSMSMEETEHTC

A-375 = assay: proliferation inhibition in MITF-low A375 cells – cell-based, cherry-pick samples, set 2, counter-screen for MITF modulator project, dose response (AID 540335); assay type: functional; details: Homo sapiens
[4] = Luminescence Cell-Based Dose Response HTS to Identify Inhibitors of 5'UTR Stem-Loop Driven Prion Protein mRNA Translation in H4 Neuroglioblastoma Cells. [Related pubchem assays: 1827 (Project Summary), 1813 (Primary HTS)]; assay type: functional
[5] = target: T2, Sentrin-specific protease 8 (Homo sapiens, UniProt Q96LD8); assay type: functional;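 note: luminescence read-out of SENP8 inhibition, dose-response confirmation following an ultra-high-throughput screen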
T2 sequence (Q96LD8 whole entry): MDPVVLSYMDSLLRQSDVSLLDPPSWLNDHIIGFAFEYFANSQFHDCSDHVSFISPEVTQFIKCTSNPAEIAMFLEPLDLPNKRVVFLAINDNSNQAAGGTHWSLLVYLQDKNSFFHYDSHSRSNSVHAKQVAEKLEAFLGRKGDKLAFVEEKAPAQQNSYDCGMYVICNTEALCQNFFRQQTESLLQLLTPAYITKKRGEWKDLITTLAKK

[6] = target: T3, Sentrin-specific protease 7 (Homo sapiens, UniProt Q9BQF6); assay type: functional;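 note: Luminescence-based dose-response confirmation of ultra-high-throughput screening hits, measuring inhibition of SENP7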
T3 sequence (Q9BQF6 whole entry): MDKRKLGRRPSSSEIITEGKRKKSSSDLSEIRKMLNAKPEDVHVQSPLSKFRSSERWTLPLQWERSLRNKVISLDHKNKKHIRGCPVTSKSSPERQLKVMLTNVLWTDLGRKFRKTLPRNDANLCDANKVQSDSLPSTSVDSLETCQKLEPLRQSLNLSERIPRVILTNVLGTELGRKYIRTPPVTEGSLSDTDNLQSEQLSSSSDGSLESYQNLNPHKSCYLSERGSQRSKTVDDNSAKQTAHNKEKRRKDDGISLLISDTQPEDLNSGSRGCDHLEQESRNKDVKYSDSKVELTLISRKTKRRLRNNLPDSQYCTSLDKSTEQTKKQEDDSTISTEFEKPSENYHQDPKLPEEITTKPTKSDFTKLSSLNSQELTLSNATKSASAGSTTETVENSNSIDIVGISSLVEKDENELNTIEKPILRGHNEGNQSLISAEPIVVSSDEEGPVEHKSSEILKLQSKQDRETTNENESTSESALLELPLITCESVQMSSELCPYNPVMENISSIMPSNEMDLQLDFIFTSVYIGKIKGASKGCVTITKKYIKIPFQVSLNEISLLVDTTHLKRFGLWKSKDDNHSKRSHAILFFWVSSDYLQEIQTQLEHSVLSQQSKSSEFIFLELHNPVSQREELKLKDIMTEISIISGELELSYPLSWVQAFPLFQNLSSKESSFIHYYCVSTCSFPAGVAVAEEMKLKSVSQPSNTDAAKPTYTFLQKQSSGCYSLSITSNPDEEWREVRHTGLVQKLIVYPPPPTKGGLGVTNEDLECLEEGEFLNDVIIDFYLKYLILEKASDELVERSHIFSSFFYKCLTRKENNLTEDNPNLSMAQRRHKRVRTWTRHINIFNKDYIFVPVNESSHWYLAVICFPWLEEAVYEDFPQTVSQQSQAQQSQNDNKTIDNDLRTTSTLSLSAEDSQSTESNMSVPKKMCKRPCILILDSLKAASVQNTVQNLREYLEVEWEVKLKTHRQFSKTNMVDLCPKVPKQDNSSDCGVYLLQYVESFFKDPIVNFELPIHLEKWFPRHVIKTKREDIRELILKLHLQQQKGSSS

Protein skinhead-1 = target: T4, Protein skinhead-1 (Caenorhabditis elegans, UniProt P34707); assay type: functional
T4 sequence (P34707 whole entry): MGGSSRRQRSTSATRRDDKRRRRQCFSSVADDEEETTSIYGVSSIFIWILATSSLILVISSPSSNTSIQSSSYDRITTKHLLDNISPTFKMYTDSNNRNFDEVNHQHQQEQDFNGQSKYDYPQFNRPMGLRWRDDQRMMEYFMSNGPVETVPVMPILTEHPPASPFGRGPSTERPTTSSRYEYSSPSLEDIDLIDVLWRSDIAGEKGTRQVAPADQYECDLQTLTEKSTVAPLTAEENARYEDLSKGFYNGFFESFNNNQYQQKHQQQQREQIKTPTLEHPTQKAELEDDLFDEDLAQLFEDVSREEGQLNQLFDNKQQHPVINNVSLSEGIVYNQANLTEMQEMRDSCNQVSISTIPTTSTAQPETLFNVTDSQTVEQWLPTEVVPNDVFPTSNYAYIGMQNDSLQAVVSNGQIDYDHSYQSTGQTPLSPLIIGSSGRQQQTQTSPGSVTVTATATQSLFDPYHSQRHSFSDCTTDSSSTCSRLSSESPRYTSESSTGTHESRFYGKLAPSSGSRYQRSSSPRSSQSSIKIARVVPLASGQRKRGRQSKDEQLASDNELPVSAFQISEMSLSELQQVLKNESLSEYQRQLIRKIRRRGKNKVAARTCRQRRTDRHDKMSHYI

[7] = target: T5, Sentrin-specific protease 6 (Homo sapiens, UniProt Q9GZR1); assay type: functional;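 note: Luminescence-based dose-response confirmatory assay of SENP6 inhibition, following up an ultra-high-throughput screen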
T5 sequence (Q9GZR1 whole entry): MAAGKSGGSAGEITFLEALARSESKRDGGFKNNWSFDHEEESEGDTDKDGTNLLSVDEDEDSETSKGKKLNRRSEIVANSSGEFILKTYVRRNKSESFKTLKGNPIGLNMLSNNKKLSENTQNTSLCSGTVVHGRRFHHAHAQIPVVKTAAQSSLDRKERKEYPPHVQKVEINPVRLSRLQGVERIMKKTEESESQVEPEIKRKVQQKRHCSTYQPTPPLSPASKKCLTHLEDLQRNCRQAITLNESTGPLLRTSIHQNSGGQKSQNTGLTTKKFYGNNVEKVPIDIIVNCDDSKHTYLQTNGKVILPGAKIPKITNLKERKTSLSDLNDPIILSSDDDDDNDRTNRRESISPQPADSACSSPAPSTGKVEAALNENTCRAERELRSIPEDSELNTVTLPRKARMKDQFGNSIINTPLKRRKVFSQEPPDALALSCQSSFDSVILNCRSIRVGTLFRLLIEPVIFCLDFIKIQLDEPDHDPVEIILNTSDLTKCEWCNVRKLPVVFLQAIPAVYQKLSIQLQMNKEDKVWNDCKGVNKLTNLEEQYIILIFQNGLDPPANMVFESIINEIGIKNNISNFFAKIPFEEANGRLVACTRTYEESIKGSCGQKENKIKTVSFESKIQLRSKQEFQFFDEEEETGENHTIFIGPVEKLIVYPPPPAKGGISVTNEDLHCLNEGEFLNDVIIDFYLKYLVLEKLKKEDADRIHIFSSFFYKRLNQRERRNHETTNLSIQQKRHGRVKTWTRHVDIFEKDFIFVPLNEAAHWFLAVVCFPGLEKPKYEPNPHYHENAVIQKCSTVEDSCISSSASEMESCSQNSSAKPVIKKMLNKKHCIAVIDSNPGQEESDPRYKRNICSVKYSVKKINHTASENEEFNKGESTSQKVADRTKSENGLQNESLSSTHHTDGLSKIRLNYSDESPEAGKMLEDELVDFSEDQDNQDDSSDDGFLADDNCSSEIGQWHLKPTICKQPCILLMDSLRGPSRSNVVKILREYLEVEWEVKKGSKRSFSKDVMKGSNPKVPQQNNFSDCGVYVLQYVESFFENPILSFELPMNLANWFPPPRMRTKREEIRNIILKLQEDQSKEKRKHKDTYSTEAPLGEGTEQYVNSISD

Caspase-3 = target: T6, Caspase-3 (Homo sapiens, UniProt P42574); assay type: functional;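 note: Dose-response selectivity test against caspase-3 for candidate inhibitors of sentrin-specific proteases (SENPs)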
T6 sequence (P42574 whole entry): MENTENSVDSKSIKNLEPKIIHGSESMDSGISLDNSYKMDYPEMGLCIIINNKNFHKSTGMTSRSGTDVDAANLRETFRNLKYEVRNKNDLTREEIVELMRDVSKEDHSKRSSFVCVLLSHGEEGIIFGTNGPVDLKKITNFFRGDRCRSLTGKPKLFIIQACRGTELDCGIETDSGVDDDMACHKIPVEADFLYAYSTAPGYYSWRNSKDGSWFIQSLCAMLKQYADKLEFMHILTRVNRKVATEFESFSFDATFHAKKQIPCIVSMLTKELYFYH

[8] = target: T7, Endoribonuclease toxin MazF (Escherichia coli K-12, UniProt P0AE70); assay: substrate-only fluorescence increase artefacts – biochemical, single-stranded RNase substrate, counter-screen for MazEF activator project, dose response (AID 588502); assay type: functional
T7 sequence (P0AE70 whole entry): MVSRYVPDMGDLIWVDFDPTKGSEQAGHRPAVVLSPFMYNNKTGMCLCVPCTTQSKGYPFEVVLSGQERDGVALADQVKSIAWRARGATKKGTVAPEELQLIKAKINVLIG

[9] = target: T7, Endoribonuclease toxin MazF; assay: activation of MazEF endoribonuclease cleavage – biochemical, fluorescence, single-stranded RNA substrate, uHTS hits, dose response (AID 588481); assay type: functional
[10] = Luminescence Cell-Based Dose Retest to Confirm Inhibitors of Cancer Stem Cells. [Related pubchem assays (depositor defined):AID2717, AID2721]; assay type: functional; details: Homo sapiens
Cytochrome P450 2C9 = Cytochrome P450 2C9 (Homo sapiens, UniProt P11712)
Cytochrome P450 2C9, sequence (P11712 whole entry): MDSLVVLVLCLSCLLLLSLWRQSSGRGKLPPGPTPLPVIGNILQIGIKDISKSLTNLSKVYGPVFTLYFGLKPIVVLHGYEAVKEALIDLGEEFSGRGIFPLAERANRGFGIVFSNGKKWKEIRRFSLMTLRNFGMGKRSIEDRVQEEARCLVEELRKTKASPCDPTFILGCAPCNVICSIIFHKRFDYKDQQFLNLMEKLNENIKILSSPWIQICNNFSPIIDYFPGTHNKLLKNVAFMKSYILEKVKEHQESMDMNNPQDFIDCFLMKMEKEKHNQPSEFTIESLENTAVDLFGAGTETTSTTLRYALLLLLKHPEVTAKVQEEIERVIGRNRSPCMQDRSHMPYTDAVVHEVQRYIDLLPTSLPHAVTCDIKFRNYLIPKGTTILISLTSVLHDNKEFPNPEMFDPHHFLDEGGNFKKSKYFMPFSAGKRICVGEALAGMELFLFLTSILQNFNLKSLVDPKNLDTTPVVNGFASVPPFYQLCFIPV

Compound	AC50 [3]	AC50 (A-375)	IC50 [5]	IC50 [6]	IC50 [7]	IC50 (Caspase-3)	further results
Cc1nnc2nc(SCC(=O)NCCC3=CCCCC3)n(-c3ccc(Br)cc3)c(N)c1-2	2.46 µM (active)	26.9 µM (active)					EC50 [1]: 8.54 µM (active); AC50 (INS1): 5.09 µM (active); EC50 [2]: 9.9 µM (active); EC50 [4]: 15.4 µM (active)
FC(F)(F)c1ccnc(Oc2ccc(C3=NCCS3)cc2)c1			5.09 µM (active)	2.36 µM (active)	4.94 µM (active)	11.5 µM (active)	IC50 (Protein skinhead-1): 94.5 µM (inactive)
O=C(Nc1cc[n+](-c2nc3ccccc3nc2[N-]S(=O)(=O)c2ccccc2)cc1)c1cccs1							EC50 [8]: > 99 µM (inactive); EC50 [9]: > 99 µM (inactive)
CC(C)(C)NC(=O)COc1ccc(-c2ccccc2)cc1			70.7 µM (active)	12.3 µM (active)	52.6 µM (active)	24.6 µM (active)	
CC(=O)c1c(C)oc2c1C(=O)c1ccccc1C2=O	6.68 µM (active)	41.3 µM (active)					AC50 [10]: 3.93 µM (active); AC50 (INS1): 4.35 µM (active)
CCOC(=O)c1sc(-c2ccc(OC)cc2)cc1N			10.7 µM (active)	7.33 µM (active)	12.1 µM (active)	37.5 µM (active)	
O=C(Nc1ccc(Nc2ccncc2)cc1)c1ccc([N+](=O)[O-])cc1	7.22 µM (active)	33.1 µM (active)					
COc1cc(/C=N/NC(=O)c2cccnc2)ccc1OC(=O)c1ccc2c(c1)OCO2							EC50 [8]: > 99 µM (inactive); AC50 (Cytochrome P450 2C9): 7.94 µM (inconclusive); EC50 [9]: > 99 µM (inactive)
